Legend:
Cbl-b [1] = molecular target: T1, Cbl-b (Homo sapiens, UniProt Q13191); experiment: Cbl-b inhibition assay (Cbl-b activity assay, FRET, Biological Example 1; 100 mM NaCl, 60 nM Src kinase); assay type: biochemical; conditions: upper bound stated in text lists; read-out: IC50 values in the Cbl-b inhibition assay of Biological Example 1
Procedure, shortened: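 Inhibition is read as loss of FRET signal. The signal arises when Src-phosphorylated, N-terminal biotinylated Avi-Cbl-b (captured by streptavidin-terbium) binds UbcH5B carrying covalently linked Bodipy-Fluorescein-tagged ubiquitin.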

T-cell [2] = experiment: IL-2 secretion from T-cells co-stimulated with anti-CD3 and anti-CD28 antibody (Biological Example 2); assay type: cell-based, human; conditions: Homo sapiens, T-cell, primary human total T-cells, baseline = anti-CD3/anti-CD28 stimulated cells without inhibitor, read-out: IL-2 secretion, Anti-CD3/Anti-CD28 stimulation, fold change over baseline; for fold induction at 0.3 µM: 0.3 μM compound; for fold induction at 1 µM: 1 μM compound; for fold induction at 4 µM: 4 μM compound
Procedure, shortened: (§1)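 No assay protocol given; T-cells stimulated with anti-CD3 alone or anti-CD3 plus anti-CD28, with or without Cbl-b inhibitor. Activation read as IL-2 secretion or CD25 surface staining, expressed as fold over baseline from uninhibited cells […].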

T-cell [3] = experiment: CD25 cell surface staining on T-cells co-stimulated with anti-CD3 and anti-CD28 antibody (Biological Example 2); assay type: cell-based, human; conditions: Homo sapiens, T-cell, primary human total T-cells, baseline = anti-CD3/anti-CD28 stimulated cells without inhibitor, read-out: CD25 staining, Anti-CD3/Anti-CD28 stimulation, fold change over baseline; for fold induction at 0.3 µM: 0.3 μM compound; for fold induction at 1 µM: 1 μM compound; for fold induction at 4 µM: 4 μM compound
Procedure, shortened: as §1

Cbl-b [4] = molecular target: T1, Cbl-b; experiment: Cbl-b activity assay (Cbl-b inhibition assay), TR-FRET of Cbl-b interaction with UbcH5B-Ub; assay type: biochemical; conditions: assay buffer with 100 mM NaCl, 60 nM Src kinase; read-out: Cbl-b activity IC50
Procedure, shortened: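 TR-FRET readout of Cbl-b binding to Bodipy-fluorescein N-terminally labeled Ub conjugated to UbcH5B C85K, measured with compound present. After compound incubation, 60 nM Src kinase with 1 mM ATP and 5 mM MgCl2 (final) was added for 1.5 h, then a further 1 h incubation; asterisked values used 50 mM NaCl buffer and 30 nM Src.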

Cbl-b (residues 36-427) = Cbl-b (residues 36-427) (Homo sapiens, UniProt Q13191); experiment: Cbl-b binding assay (SPR, Biacore T200); conditions: 20° C., 1:1 binding model
Sequence of Cbl-b (residues 36-427) (Q13191 36-427): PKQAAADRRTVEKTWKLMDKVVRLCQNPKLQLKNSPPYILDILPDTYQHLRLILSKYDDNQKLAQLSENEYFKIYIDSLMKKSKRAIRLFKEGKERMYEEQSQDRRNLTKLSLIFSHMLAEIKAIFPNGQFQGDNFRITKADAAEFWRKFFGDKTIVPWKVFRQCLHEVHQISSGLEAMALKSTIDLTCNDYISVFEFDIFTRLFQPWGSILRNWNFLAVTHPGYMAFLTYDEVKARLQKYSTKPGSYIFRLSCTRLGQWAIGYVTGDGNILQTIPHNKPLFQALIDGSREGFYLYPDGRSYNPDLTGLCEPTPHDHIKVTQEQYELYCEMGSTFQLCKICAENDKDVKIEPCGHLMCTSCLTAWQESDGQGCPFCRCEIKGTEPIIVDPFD
Procedure, shortened: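 Affinities derived from global 1:1 steady-state or kinetic fits of double-referenced, solvent-corrected SPR data, 20 °C, NeutrAvidin-capture chip. Compound series (top 100 or 50 μM, 8–10 points) injected 50 s, 90–180 s dissociation. Asterisked values used 50 mM instead of 100 mM NaCl and 30 nM Src kinase.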

T-cell [5] = experiment: IL-2 secretion from T-cells stimulated with anti-CD3 antibody alone (Biological Example 2); assay type: cell-based; conditions: primary human total T-cells, read-out: IL-2 secretion, Anti-CD3 stimulation, fold change over baseline; for fold induction at 1 µM: 1 μM compound; for fold induction at 8 µM: 8 μM compound
T-cell [6] = experiment: CD25 cell surface staining on T-cells stimulated with anti-CD3 antibody alone (Biological Example 2); assay type: cell-based; conditions: primary human total T-cells, baseline = anti-CD3/anti-CD28 stimulated cells without inhibitor, read-out: CD25 staining, Anti-CD3 stimulation, fold change over baseline; for fold induction at 1 µM: 1 μM compound; for fold induction at 8 µM: 8 μM compound

T1 sequence (Q13191 36-427): as above

Cn1cnnc1[C@@H]1C[C@@H]1c1cccc(N2Cc3c(cc(C#N)cc3C(F)(F)F)C2=O)c1 [Compound 408, 2-(3-((1S,2R)-2-(4-methyl-4H-1,2,4-triazol-3-yl)cyclopropyl)phenyl)-3-oxo-7-(trifluoromethyl)isoindoline-5-carbonitrile]
IC50 (Cbl-b [1]): ≤ 300 nM
fold induction at 0.3 µM (T-cell [2]): 1.01 to 2.5
fold induction at 1 µM (T-cell [2]): 1.01 to 2.5
fold induction at 4 µM (T-cell [2]): 2.51 to 5
fold induction at 0.3 µM (T-cell [3]): 1.01 to 1.3
fold induction at 1 µM (T-cell [3]): 1.01 to 1.3
fold induction at 4 µM (T-cell [3]): 1.01 to 1.3
IC50 (Cbl-b [4]): 100 to 300 nM
Kd (Cbl-b (residues 36-427)): 100 to 300 nM
fold induction at 1 µM (T-cell [5]): < 0.05
fold induction at 8 µM (T-cell [5]): 0.101 to 0.15
fold induction at 1 µM (T-cell [6]): 0.601 to 0.8
fold induction at 8 µM (T-cell [6]): 0.801 to 1

C[C@H](Cc1nncn1C)c1cccc(N2Cc3c(cc(-n4cccn4)cc3C(F)(F)F)C2=O)c1 [Compound 384, (R)-2-(3-(1-(4-methyl-4H-1,2,4-triazol-3-yl)propan-2-yl)phenyl)-6-(1H-pyrazol-1-yl)-4-(trifluoromethyl)isoindolin-1-one]
IC50 (Cbl-b [1]): ≤ 100 nM
fold induction at 0.3 µM (T-cell [2]): 2.51 to 5
fold induction at 1 µM (T-cell [2]): > 7.5
fold induction at 4 µM (T-cell [2]): > 7.5
fold induction at 0.3 µM (T-cell [3]): 1.31 to 1.5
fold induction at 1 µM (T-cell [3]): 1.51 to 1.75
fold induction at 4 µM (T-cell [3]): 1.51 to 1.75
IC50 (Cbl-b [4]): < 100 nM
Kd (Cbl-b (residues 36-427)): < 100 nM
fold induction at 1 µM (T-cell [5]): > 0.201
fold induction at 8 µM (T-cell [5]): > 0.201
fold induction at 1 µM (T-cell [6]): > 1
fold induction at 8 µM (T-cell [6]): > 1

C[C@H](Cc1nncn1C)c1cccc(N2Cc3c(cc(CN4CC(F)(F)C4)cc3C(F)(F)F)C2=O)c1 [Compound 402, (R)-6-((3,3-difluoroazetidin-1-yl)methyl)-2-(3-(1-(4-methyl-4H-1,2,4-triazol-3-yl)propan-2-yl)phenyl)-4-(trifluoromethyl)isoindolin-1-one]
IC50 (Cbl-b [1]): ≤ 100 nM
fold induction at 0.3 µM (T-cell [2]): 5 to 7.5
fold induction at 1 µM (T-cell [2]): > 7.5
fold induction at 4 µM (T-cell [2]): > 7.5
fold induction at 0.3 µM (T-cell [3]): 1.01 to 1.3
fold induction at 1 µM (T-cell [3]): 1.31 to 1.5
fold induction at 4 µM (T-cell [3]): 1.31 to 1.5
IC50 (Cbl-b [4]): < 100 nM
Kd (Cbl-b (residues 36-427)): < 100 nM
fold induction at 1 µM (T-cell [5]): 0.151 to 0.2
fold induction at 8 µM (T-cell [5]): > 0.201
fold induction at 1 µM (T-cell [6]): > 1
fold induction at 8 µM (T-cell [6]): > 1

Cn1cnnc1C[C@H](c1cccc(N2Cc3c(cccc3C(F)(F)F)C2=O)c1)C(F)(F)F [Compound 471a, (R)-2-(3-(1,1,1-trifluoro-3-(4-methyl-4H-1,2,4-triazol-3-yl)propan-2-yl)phenyl)-4-(trifluoromethyl)isoindolin-1-one]
IC50 (Cbl-b [1]): ≤ 300 nM
fold induction at 0.3 µM (T-cell [2]): 1.01 to 2.5
fold induction at 1 µM (T-cell [2]): 1.01 to 2.5
fold induction at 4 µM (T-cell [2]): 1.01 to 2.5
fold induction at 0.3 µM (T-cell [3]): 1.01 to 1.3
fold induction at 1 µM (T-cell [3]): 1.01 to 1.3
fold induction at 4 µM (T-cell [3]): 1.01 to 1.3
IC50 (Cbl-b [4]): 100 to 300 nM
Kd (Cbl-b (residues 36-427)): 301 to 1000 nM
fold induction at 1 µM (T-cell [5]): 0.051 to 0.1
fold induction at 8 µM (T-cell [5]): 0.101 to 0.15
fold induction at 1 µM (T-cell [6]): 0.601 to 0.8
fold induction at 8 µM (T-cell [6]): 0.801 to 1

Cn1cnnc1CC(C)(C)c1cccc(NC(=O)c2cc(C(=O)N3CC[C@H](O)C3)cc(C(F)(F)F)n2)c1 [Compound 475, (S)-4-(3-hydroxypyrrolidine-1-carbonyl)-N-(3-(2-methyl-1-(4-methyl-4H-1,2,4-triazol-3-yl)propan-2-yl)phenyl)-6-(trifluoromethyl)picolinamide]
IC50 (Cbl-b [1]): ≤ 100 nM
fold induction at 0.3 µM (T-cell [2]): 1.01 to 2.5
fold induction at 1 µM (T-cell [2]): 2.51 to 5
fold induction at 4 µM (T-cell [2]): 5 to 7.5
fold induction at 0.3 µM (T-cell [3]): 1.01 to 1.3
fold induction at 1 µM (T-cell [3]): 1.01 to 1.3
fold induction at 4 µM (T-cell [3]): 1.01 to 1.3
IC50 (Cbl-b [4]): < 100 nM
Kd (Cbl-b (residues 36-427)): 100 to 300 nM
fold induction at 1 µM (T-cell [5]): 0.101 to 0.15
fold induction at 8 µM (T-cell [5]): > 0.201
fold induction at 1 µM (T-cell [6]): 0.801 to 1
fold induction at 8 µM (T-cell [6]): > 1

C[C@H](Cc1nncn1C)c1cccc(N2Cc3c(cc(CN4C[C@@H](F)[C@@H](O)C4)cc3C(F)(F)F)C2=O)c1 [Compound 418]
IC50 (Cbl-b [1]): ≤ 100 nM
fold induction at 0.3 µM (T-cell [2]): 2.51 to 5
fold induction at 1 µM (T-cell [2]): 5 to 7.5
fold induction at 4 µM (T-cell [2]): > 7.5
fold induction at 0.3 µM (T-cell [3]): 1.01 to 1.3
fold induction at 1 µM (T-cell [3]): 1.31 to 1.5
fold induction at 4 µM (T-cell [3]): 1.31 to 1.5
IC50 (Cbl-b [4]): < 100 nM
Kd (Cbl-b (residues 36-427)): < 100 nM
fold induction at 1 µM (T-cell [5]): 0.151 to 0.2
fold induction at 8 µM (T-cell [5]): > 0.201
fold induction at 1 µM (T-cell [6]): > 1
fold induction at 8 µM (T-cell [6]): > 1

C[C@H](Cc1nncn1C)c1cccc(N2Cc3c(cc(CN4CCC(F)(F)C4)cc3C(F)(F)F)C2=O)c1 [Compound 396, (R)-6-((3,3-difluoropyrrolidin-1-yl)methyl)-2-(3-(1-(4-methyl-4H-1,2,4-triazol-3-yl)propan-2-yl)phenyl)-4-(trifluoromethyl)isoindolin-1-one]
IC50 (Cbl-b [1]): ≤ 100 nM
fold induction at 0.3 µM (T-cell [2]): 2.51 to 5
fold induction at 1 µM (T-cell [2]): 5 to 7.5
fold induction at 4 µM (T-cell [2]): > 7.5
fold induction at 0.3 µM (T-cell [3]): 1.01 to 1.3
fold induction at 1 µM (T-cell [3]): 1.01 to 1.3
fold induction at 4 µM (T-cell [3]): 1.31 to 1.5
IC50 (Cbl-b [4]): < 100 nM
Kd (Cbl-b (residues 36-427)): < 100 nM
fold induction at 1 µM (T-cell [5]): 0.151 to 0.2
fold induction at 8 µM (T-cell [5]): > 0.201
fold induction at 1 µM (T-cell [6]): > 1
fold induction at 8 µM (T-cell [6]): > 1

Cc1c[nH]nc1C[C@@H](C)c1cccc(N2Cc3c(cc(C(=O)N4C[C@@H](O)C[C@H]4C)cc3C(F)(F)F)C2=O)c1 [Compound 464, 6-((2R,4S)-4-hydroxy-2-methylpyrrolidine-1-carbonyl)-2-(3-((R)-1-(4-methyl-1H-pyrazol-3-yl)propan-2-yl)phenyl)-4-(trifluoromethyl)isoindolin-1-one]
IC50 (Cbl-b [1]): ≤ 100 nM
fold induction at 0.3 µM (T-cell [2]): 1.01 to 2.5
fold induction at 1 µM (T-cell [2]): 2.51 to 5
fold induction at 4 µM (T-cell [2]): > 7.5
fold induction at 0.3 µM (T-cell [3]): 1.01 to 1.3
fold induction at 1 µM (T-cell [3]): 1.01 to 1.3
fold induction at 4 µM (T-cell [3]): 1.31 to 1.5
IC50 (Cbl-b [4]): < 100 nM
Kd (Cbl-b (residues 36-427)): < 100 nM
fold induction at 1 µM (T-cell [5]): 0.151 to 0.2
fold induction at 8 µM (T-cell [5]): > 0.201
fold induction at 1 µM (T-cell [6]): > 1
fold induction at 8 µM (T-cell [6]): > 1

CC(O)c1cc2c(c(C(F)(F)F)c1)CN(c1cccc([C@H](C)Cc3nncn3C)c1)C2=O (stereo partly drawn) [Compound 436, 6-(1-hydroxyethyl)-2-(3-((R)-1-(4-methyl-4H-1,2,4-triazol-3-yl)propan-2-yl)phenyl)-4-(trifluoromethyl)isoindolin-1-one]
IC50 (Cbl-b [1]): ≤ 100 nM
fold induction at 0.3 µM (T-cell [2]): 2.51 to 5
fold induction at 1 µM (T-cell [2]): 5 to 7.5
fold induction at 4 µM (T-cell [2]): > 7.5
fold induction at 0.3 µM (T-cell [3]): 1.01 to 1.3
fold induction at 1 µM (T-cell [3]): 1.31 to 1.5
fold induction at 4 µM (T-cell [3]): 1.31 to 1.5
IC50 (Cbl-b [4]): < 100 nM
Kd (Cbl-b (residues 36-427)): < 100 nM
fold induction at 1 µM (T-cell [5]): 0.151 to 0.2
fold induction at 8 µM (T-cell [5]): > 0.201
fold induction at 1 µM (T-cell [6]): 0.801 to 1
fold induction at 8 µM (T-cell [6]): > 1

C[C@H](CO)Nc1cc([C@H](C)Cc2nncn2C)cc(N2Cc3c(cccc3C(F)(F)F)C2=O)n1 [Compound 366, 2-(6-((R)-1-hydroxypropan-2-ylamino)-4-((R)-1-(4-methyl-4H-1,2,4-triazol-3-yl)propan-2-yl)pyridin-2-yl)-4-(trifluoromethyl)isoindolin-1-one]
IC50 (Cbl-b [1]): ≤ 300 nM
fold induction at 0.3 µM (T-cell [2]): 1.01 to 2.5
fold induction at 1 µM (T-cell [2]): 2.51 to 5
fold induction at 4 µM (T-cell [2]): 5 to 7.5
fold induction at 0.3 µM (T-cell [3]): 1.01 to 1.3
fold induction at 1 µM (T-cell [3]): 1.01 to 1.3
fold induction at 4 µM (T-cell [3]): 1.31 to 1.5
IC50 (Cbl-b [4]): 100 to 300 nM
Kd (Cbl-b (residues 36-427)): 100 to 300 nM
fold induction at 1 µM (T-cell [5]): 0.051 to 0.1
fold induction at 8 µM (T-cell [5]): > 0.201
fold induction at 1 µM (T-cell [6]): 0.801 to 1
fold induction at 8 µM (T-cell [6]): > 1
